One molecule from patent publication US11395803B2, “Composition for controlled release of physiologically active substances and process for its preparation” (BIOSCREEN TECHNOLOGIES S.R.L., priority 2017, dated 2022) can be followed below.

Data set [1] in a line: Degree of ruminal bypass, in vitro (pharmaceutical dissolver / Daisy II ANKOM artificial rumen). As for the experimental part: In the context of the present invention, the term “ruminal by-pass” indicates the percentage amount by weight of substance reaching the animal post-ruminal area, namely the stomach and the intestine, with respect to the total amount by weight of the orally administered substance.
The experimental conditions of use were 39° C., 15 rpm, 8 hours presence in the solution with “ruminal” pH of about 6.8. • Daisy^II ANKOM: commercially available laboratory artificial rumen, for determining the degree of ruminal bypass. The experimental conditions of use were 39° C., 8 hours presence in ruminal conditions, buffer solution at “ruminal” pH with insertion of “ruminal inoculum” and re-creation of ruminal anaerobiosis according to a university procedure known to those skilled in the art. The pH normally tested in the quality control phase is 6.8. • Pharmaceutical dissolver for determining the degree of post-ruminal digestibility. The experimental conditions of use followed the procedure known to experts in the field as “Boisen Test” and, in particular, they were: • 39° C., 30 rpm, 2 h, buffer solution with “gastric” pH (2.0)+pepsin inoculum. • 39° C., 30 rpm, 4 h, buffer solution with “intestinal” pH (6.8)+pancreatine inoculum. • 39° C., 30 rpm, 18 h, buffer solution with “intestinal” pH (6.8)+lipase and bile extract inoculum.
Then the microgranules were subjected to an evaluation of the degree of ruminal by-pass, post-ruminal digestibility and total bioavailability using the Boisen method. For a complete description of the Boisen method, reference is made to the publication S. Boisen, J. A. Fernàndez “Prediction of total tract digestibility of energy feedstuffs and […] by in vitro analyses” Animal Feed Science Technology 68, 277-286, 1997.

Data set [2] in a line: Post-ruminal digestibility, in vitro (pharmaceutical dissolver, Boisen Test).
Method: Whereas, the term “post-ruminal digestibility” of a substance means the percentage amount by weight of substance that is freed from the coating exclusively in the post-ruminal tract, dissolving and so making it digestible or absorbable, with respect to the total amount by weight of the orally administered substance.
The experimental conditions of use were 39° C., 15 rpm, 8 hours presence in the solution with “ruminal” pH of about 6.8. • Daisy^II ANKOM: commercially available laboratory artificial rumen, for determining the degree of ruminal bypass. The experimental conditions of use were 39° C., 8 hours presence in ruminal conditions, buffer solution at “ruminal” pH with insertion of “ruminal inoculum” and re-creation of ruminal anaerobiosis according to a university procedure known to those skilled in the art. The pH normally tested in the quality control phase is 6.8. • Pharmaceutical dissolver for determining the degree of post-ruminal digestibility. The experimental conditions of use followed the procedure known to experts in the field as “Boisen Test” and, in particular, they were: • 39° C., 30 rpm, 2 h, buffer solution with “gastric” pH (2.0)+pepsin inoculum. • 39° C., 30 rpm, 4 h, buffer solution with “intestinal” pH (6.8)+pancreatine inoculum. • 39° C., 30 rpm, 18 h, buffer solution with “intestinal” pH (6.8)+lipase and bile extract inoculum. […]
Data set [3] in a line: Total bioavailability, in vitro (combination of ruminal bypass and post-ruminal digestibility, Boisen method).
The mark [4] stands for this setting: theoretical administration of 100 g of choline chloride.
Where [5] appears, read: theoretical administration of 200 g of product.

`C[N+](C)(C)CCO.[Cl-]` [Product A, choline chloride]: the “Bypassed Choline Chloride” value in data set [1] (setting [4]) and in data set [1] (setting [5]) was 0 g in each case. The figures for the “Choline Chloride lost in the rumen in 8 h” value in data set [1] (setting [4]) and in data set [1] (setting [5]) were 101 g and 198 g, respectively. Besides, the “Choline Chloride in faeces” value in data set [2] (setting [4]) and in data set [2] (setting [5]) was 0 g in each case. Besides, the “Bioavailable Choline Chloride” value in data set [3] (setting [4]) and in data set [3] (setting [5]) was 0 g in each case.
